Experimental data as given in patent publication US7485651B2, “Compounds with activity on muscarinic receptors” (Acadia Pharmaceuticals, Inc., priority 1998, dated 2009).

Target: T1, m1 receptor (Homo sapiens, UniProt P11229)
T1 construct: expressed in transfected cells; host or cells: NIH 3T3 (ATCC CRL 1658)
T1 sequence (P11229 1-460): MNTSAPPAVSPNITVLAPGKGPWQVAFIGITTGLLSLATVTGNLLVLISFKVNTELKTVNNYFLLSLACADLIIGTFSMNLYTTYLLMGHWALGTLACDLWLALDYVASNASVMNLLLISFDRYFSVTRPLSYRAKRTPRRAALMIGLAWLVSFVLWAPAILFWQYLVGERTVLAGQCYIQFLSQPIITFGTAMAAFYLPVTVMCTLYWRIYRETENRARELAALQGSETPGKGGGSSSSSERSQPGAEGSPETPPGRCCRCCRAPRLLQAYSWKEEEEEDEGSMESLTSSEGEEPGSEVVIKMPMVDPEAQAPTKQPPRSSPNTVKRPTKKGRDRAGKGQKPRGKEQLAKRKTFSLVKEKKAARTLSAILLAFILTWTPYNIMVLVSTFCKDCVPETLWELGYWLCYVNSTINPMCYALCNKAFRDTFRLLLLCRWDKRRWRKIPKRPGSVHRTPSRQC
Assay: R-SAT / NIH 3T3 cells transfected with m1 muscarinic receptor
Type: cell-based
Protocol: Cell amplification is detected as increased levels of a marker also expressed by the cells.
The cells were treated with trypsin-EDTA, spun down and plated at 2×10^6 per 15 cm dish in 20 m1 of DMEM containing 10% calf serum.
On day one, the cells were transfected using the Superfect transfection reagent (available from Qiagen, Valencia, Calif.) in accordance with the manufacturer's instructions. Receptor DNA, β-gal DNA (pSI-β-galactosidase available from Promega, Madison, Wis.), chimeric Gq-i5 DNA for the m2 and m4 receptor subtype assays, and salmon sperm DNA (available from Sigma, St. Louis, […].) as filler to a total of 20 μg DNA was added per plate. Prior to addition to the plates, 60 μl Superfect was added to the DNA and mixed thoroughly by pipetting up and down several times. The mixture was incubated at room temperature for 10-15 minutes. The media were aspirated, and 12 ml fresh DMEM containing 10% calf serum and 50 units/m1 penicillin/streptomycin was added to the plates. The DNA-Superfect solution was mixed once more with a pipette and added to the plate which was swirled to distribute the DNA mixture evenly over the surface. The cells were incubated overnight at 37° C. and 5% CO2. After incubation, the media were aspirated and the plates were rinsed once with a 15 m1 volume of Hank's Buffered Saline. The plates were swirled to ensure thorough rinsing. 20 m1 fresh DMEM supplemented with 10% calf serum and 50 units/m1 penicillin/streptomycin was added to the plates. The cells were incubated for 24-48 hours until the plates were 100% confluent.
Assay of NIH 3T3 cells transfected with muscarinic receptor subtypes (general procedure) DMEM containing 2% Cyto-SF3 was heated at 37° C. in a water bath under sterile conditions. Sterile working stock solutions of test compounds to be assayed were prepared by diluting the compounds in DMEM to 8× the final concentration for testing. The compound (carbachol) to be included in the assay as a positive control was also diluted in DMEM to 8× the final concentration. 50 μL of the DMEM containing 2% Cyto-SF3 was added to each well of 96-well microtiter plates under sterile conditions. Then, 16 of compound solutions were added to the top wells of the plates, and dilution of the solutions was performed by taking 16 μl of the compound solutions from the top wells and pipetting them into the next row of wells. This procedure was repeated with each subsequent row of wells, except that 50 μl medium alone was added to the baseline control wells (the wells that contain medium and cells, but not test compounds) and plate control wells (wells containing medium, but not test compounds and cells). The plates were then placed in an incubator at 37° C. to equilibrate temperature and pH.
When the cell cultures had reached 100% confluence, the medium was aspirated and each plate was rinsed with 15 m1 Hank's Buffered Saline (HBS). The cells were left in the incubator for about 10-15 minutes until the HBS had turned slightly yellow. The HBS was then aspirated and 1 m1 trypsin was added to each plate and swirled so as to completely cover the plates. The edges of the plates were gently rapped several times to loosen the cells. After the cells had been dislodged from the surface, 8 m1 DMEM containing 10% calf serum and 50 units/m1 penicillin and 50 units/m1 streptomycin was added to inhibit the trypsin. The plates were rinsed with this medium, and the cells were pipetted into a tube. The cells were centrifuged at 1000 rpm for 5-10 min. in an IEC Centra CL2 centrifuge (produced by Sorvall). Afterwards, the medium was carefully aspirated so as not to dislodge the cells. The cell pellet was suspended in 1600 μl DMEM containing 10% calf serum and 50 units/m1 penicillin and 50 units/m1 streptomycin, after which 20 m1 DMEM supplemented with 2% Cyto-SF3 was added. 50 μl aliquots of this cell suspension was added to the wells of the 96-well microtiter plates prepared above (except for the plate control wells).

## CCCCC1CCN(CCCC(=O)c2ccccc2C)CC1 [Compound A, 4-n-Butyl-1-[4-(2-methylphenyl)-4-oxo-1-butyl]piperidine]
NIH3T3, m1, compound at 1.5 μM, maximum = response to 10 μM carbachol, read-out: Cellular response as a percentage of the maximum response of the cells
  Emax at 1.5 µM: 107%
m1
  antagonism of carbachol-induced responses: not an antagonist
m1 receptor
  maximal response relative to reference compound carbachol: lower maximal response than the reference compound carbachol
Receptor transfected into separate cell cultures
  agonist activity at the m1 receptor: potent partial agonist
